Data as given in patent US9637491B2, “Pyrazolo[4,3-D]pyrimidines as kinase inhibitors” (Origenis GmbH, priority 2012, dated 2017).

Target: T1, SYK kinase (Homo sapiens, UniProt P43405)
T1 construct: purchased Invitrogen, Carlsbad
Assay: SYK assay (OMNIA Kinase Assay, Invitrogen)
Assay type: biochemical
Details: SYK Activities; 1 mM ATP, 10 μM Omnia Peptide Substrate Tyr 7, 30° C.
How it was run: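 SYK was added last to start phosphorylation of a chelation-enhanced SOX peptide substrate (10 μM) in the presence of 1 mM ATP and 0.2 mM DTT at 30° C. Kinetic readings at λex 360/λem 485 nm over 30 min gave velocities, fitted sigmoidally against compound concentration to give IC50.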

Row | IC50 | Compound
1 | 10 to 100 nM | FCCn1cc(Nc2nc(C3CCC3)nc3cn[nH]c23)cn1 [Example 363, 5-cyclobutyl-N-(1-(2-fluoroethyl)-1H-pyrazol-4-yl)-1H-pyrazolo[4,3-d]pyrimidin-7-amine]
2 | 10 to 100 nM | COCC(C)(C)n1cc(Nc2nc(C3CC3)nc3cn[nH]c23)cn1 [Example 283, 5-cyclopropyl-N-(1-(1-methoxy-2-methylpropan-2-yl)-1H-pyrazol-4-yl)-1H-pyrazolo[4,3-d]pyrimidin-7-amine]
3 | 10 to 100 nM | Fc1cccc(F)c1-c1nc(Nc2ccc3c(c2)NCCO3)c2[nH]ncc2n1 [Example 537, N-(5-(2,6-difluorophenyl)-1H-pyrazolo[4,3-d]pyrimidin-7-yl)-3,4-dihydro-2H-benzo[b][1,4]oxazin-6-amine]
4 | < 10 nM | COc1cc(Nc2nc(C3CC3)nc3cn[nH]c23)ccc1N1CCOCC1 [Example 35, 5-cyclopropyl-N-(3-methoxy-4-morpholinophenyl)-1H-pyrazolo[4,3-d]pyrimidin-7-amine]
5 | 100 to 1000 nM | Cc1c(Nc2nc(C3CC3)nc3cn[nH]c23)cnn1C(C)C [Example 287, 5-cyclopropyl-N-(1-isopropyl-5-methyl-1H-pyrazol-4-yl)-1H-pyrazolo[4,3-d]pyrimidin-7-amine]
6 | < 10 nM | N#CCn1cc(Nc2nc(-c3ccoc3)nc3cn[nH]c23)cn1 [Example 241, 2-(4-((5-(furan-3-yl)-1H-pyrazolo[4,3-d]pyrimidin-7-yl)amino)-1H-pyrazol-1-yl)acetonitrile]
7 | 10 to 100 nM | CC(C)C(C)n1cc(Nc2nc(-c3ccc4cn[nH]c4c3)nc3cn[nH]c23)cn1 (centres unmarked) [Example 469, 5-(1H-indazol-6-yl)-N-(1-(3-methylbutan-2-yl)-1H-pyrazol-4-yl)-1H-pyrazolo[4,3-d]pyrimidin-7-amine]
8 | 100 to 1000 nM | COCCn1cc(Nc2nc(-c3cocn3)nc3cn[nH]c23)cn1 [Example 128, N-(1-(2-methoxyethyl)-1H-pyrazol-4-yl)-5-(oxazol-4-yl)-1H-pyrazolo[4,3-d]pyrimidin-7-amine]
9 | 10 to 100 nM | CC(=O)N1CCN(c2ccc(Nc3nc(-c4cnn(C)c4)nc4cn[nH]c34)cc2)CC1 [Example 187, 1-(4-(4-((5-(1-methyl-1H-pyrazol-4-yl)-1H-pyrazolo[4,3-d]pyrimidin-7-yl)amino)phenyl)piperazin-1-yl)ethan-1-one]
10 | < 10 nM | c1ccc2sc(-c3nc(Nc4cnn(C5CC5)c4)c4[nH]ncc4n3)nc2c1 [Example 410, 5-(benzo[d]thiazol-2-yl)-N-(1-cyclopropyl-1H-pyrazol-4-yl)-1H-pyrazolo[4,3-d]pyrimidin-7-amine]
11 | 100 to 1000 nM | O=C(O)c1cccc(-c2nc(Nc3cnn(C4CCOCC4)c3)c3[nH]ncc3n2)c1 [Example 217, 3-(7-((1-(tetrahydro-2H-pyran-4-yl)-1H-pyrazol-4-yl)amino)-1H-pyrazolo[4,3-d]pyrimidin-5-yl)benzoic acid]
12 | 100 to 1000 nM | O=C(c1ccc(Nc2nc(-c3ccco3)nc3cn[nH]c23)cc1F)N1CCOCC1 [Example 197, (2-fluoro-4-((5-(furan-2-yl)-1H-pyrazolo[4,3-d]pyrimidin-7-yl)amino)phenyl)(morpholino)methanone]
13 | 100 to 1000 nM | COc1ccc(Nc2nc(-c3ccoc3)nc3cn[nH]c23)cc1OC [Example 95, N-(3,4-dimethoxyphenyl)-5-(furan-3-yl)-1H-pyrazolo[4,3-d]pyrimidin-7-amine]
14 | 100 to 1000 nM | CC(C)Cn1cc(Nc2nc(C(C)(C)C)nc3cn[nH]c23)cn1 [Example 268, 5-(tert-butyl)-N-(1-isobutyl-1H-pyrazol-4-yl)-1H-pyrazolo[4,3-d]pyrimidin-7-amine]
15 | 10 to 100 nM | CC(C)(O)Cn1cc(Nc2nc(-c3ccc4cn[nH]c4c3)nc3cn[nH]c23)cn1 [Example 449, 1-(4-((5-(1H-indazol-6-yl)-1H-pyrazolo[4,3-d]pyrimidin-7-yl)amino)-1H-pyrazol-1-yl)-2-methylpropan-2-ol]
16 | < 10 nM | c1cc(N2CCOCC2)ccc1Nc1nc(C2CCC2)nc2cn[nH]c12 [Example 120, 5-cyclobutyl-N-(4-morpholinophenyl)-1H-pyrazolo[4,3-d]pyrimidin-7-amine]
17 | 100 to 1000 nM | Clc1c(Nc2nc(C3CCC3)nc3cn[nH]c23)cnn1C1CCNCC1 [Example 364, N-(5-chloro-1-(piperidin-4-yl)-1H-pyrazol-4-yl)-5-cyclobutyl-1H-pyrazolo[4,3-d]pyrimidin-7-amine]
18 | 100 to 1000 nM | c1ccc(Sc2ccc(Nc3nc(-c4ccc5cn[nH]c5c4)nc4cn[nH]c34)cc2)cc1 [Example 515, 5-(1H-indazol-6-yl)-N-(4-(phenylthio)phenyl)-1H-pyrazolo[4,3-d]pyrimidin-7-amine]
19 | 10 to 100 nM | COc1cc(Nc2nc(-c3c(F)cccc3Cl)nc3cn[nH]c23)ccc1N1CCOCC1 [Example 514, 5-(2-chloro-6-fluorophenyl)-N-(3-methoxy-4-morpholinophenyl)-1H-pyrazolo[4,3-d]pyrimidin-7-amine]

Row | IC50 | Compound
20 | 10 to 100 nM | CN1CCN(c2ccc(Nc3nc(-c4c(F)cccc4F)nc4cn[nH]c34)cc2Cl)CC1 [Example 539, N-(3-chloro-4-(4-methylpiperazin-1-yl)phenyl)-5-(2,6-difluorophenyl)-1H-pyrazolo[4,3-d]pyrimidin-7-amine]
21 | 10 to 100 nM | CN1CCC(n2cc(Nc3nc(-c4nc5ccccc5o4)nc4cn[nH]c34)cn2)CC1 [Example 445, 5-(benzo[d]oxazol-2-yl)-N-(1-(1-methylpiperidin-4-yl)-1H-pyrazol-4-yl)-1H-pyrazolo[4,3-d]pyrimidin-7-amine]
22 | 100 to 1000 nM | N#CC1(n2cc(Nc3nc(-c4ccoc4)nc4cn[nH]c34)cn2)CCCCC1 [Example 219, 1-(4-((5-(furan-3-yl)-1H-pyrazolo[4,3-d]pyrimidin-7-yl)amino)-1H-pyrazol-1-yl)cyclohexanecarbonitrile]
23 | < 10 nM | CC(C)n1cc(Nc2nc(C3CC3)nc3cn[nH]c23)cn1 [Example 229, 5-cyclopropyl-N-(1-isopropyl-1H-pyrazol-4-yl)-1H-pyrazolo[4,3-d]pyrimidin-7-amine]
24 | 100 to 1000 nM | CC(C(=O)O)n1cc(Nc2nc(-c3ccc4cn[nH]c4c3)nc3cn[nH]c23)cn1 (centres unmarked) [Example 493, 2-(4-((5-(1H-indazol-6-yl)-1H-pyrazolo[4,3-d]pyrimidin-7-yl)amino)-1H-pyrazol-1-yl)propanoic acid]
25 | 10 to 100 nM | O=C1CCCc2ccc(Nc3nc(-c4ccoc4)nc4cn[nH]c34)cc2N1 [Example 107, 8-((5-(furan-3-yl)-1H-pyrazolo[4,3-d]pyrimidin-7-yl)amino)-4,5-dihydro-1H-benzo[b]azepin-2(3H)-one]
26 | 100 to 1000 nM | COc1ccc(Nc2nc(-c3cnn(C(C)C(C)C)c3)nc3cn[nH]c23)cc1OC (centres unmarked) [Example 511, N-(3,4-dimethoxyphenyl)-5-(1-(3-methylbutan-2-yl)-1H-pyrazol-4-yl)-1H-pyrazolo[4,3-d]pyrimidin-7-amine]
27 | 100 to 1000 nM | CC(C)n1ncc(Nc2nc(C3CCC3)nc3cn[nH]c23)c1Cl [Example 312, N-(5-chloro-1-isopropyl-1H-pyrazol-4-yl)-5-cyclobutyl-1H-pyrazolo[4,3-d]pyrimidin-7-amine]
28 | 100 to 1000 nM | CC(C)Cn1cc(Nc2nc(-c3cccc(NS(C)(=O)=O)c3)nc3cn[nH]c23)cn1 [Example 261, N-(3-(7-((1-isobutyl-1H-pyrazol-4-yl)amino)-1H-pyrazolo[4,3-d]pyrimidin-5-yl)phenyl)methanesulfonamide]
29 | < 10 nM | c1nn(C2CCNC2)cc1Nc1nc(C2CCC2)nc2cn[nH]c12 (centres unmarked) [Example 462, 5-cyclobutyl-N-(1-(pyrrolidin-3-yl)-1H-pyrazol-4-yl)-1H-pyrazolo[4,3-d]pyrimidin-7-amine]
30 | 10 to 100 nM | OC1CCN(c2ccc(Nc3nc(-c4ccoc4)nc4cn[nH]c34)cc2)CC1 [Example 443, 1-(4-((5-(furan-3-yl)-1H-pyrazolo[4,3-d]pyrimidin-7-yl)amino)phenyl)piperidin-4-ol]
31 | 100 to 1000 nM | CC(C)(C#N)n1cc(Nc2nc(C3CC3)nc3cn[nH]c23)cn1 [Example 177, 2-(4-((5-cyclopropyl-1H-pyrazolo[4,3-d]pyrimidin-7-yl)amino)-1H-pyrazol-1-yl)-2-methylpropanenitrile]
32 | 10 to 100 nM | O=C1CCCc2ccc(Nc3nc(-c4ccc5cn[nH]c5c4)nc4cn[nH]c34)cc2N1 [Example 516, 8-((5-(1H-indazol-6-yl)-1H-pyrazolo[4,3-d]pyrimidin-7-yl)amino)-4,5-dihydro-1H-benzo[b]azepin-2(3H)-one]
33 | 10 to 100 nM | O=C1CCCc2ccc(Nc3nc(-c4ccco4)nc4cn[nH]c34)cc2N1 [Example 113, 8-((5-(furan-2-yl)-1H-pyrazolo[4,3-d]pyrimidin-7-yl)amino)-4,5-dihydro-1H-benzo[b]azepin-2(3H)-one]
34 | 100 to 1000 nM | Fc1cc(Nc2nc(C3CC3)nc3cn[nH]c23)ccc1N1CCOCC1 [Example 34, 5-cyclopropyl-N-(3-fluoro-4-morpholinophenyl)-1H-pyrazolo[4,3-d]pyrimidin-7-amine]
35 | 10 to 100 nM | CC(C)(C)n1cc(Nc2nc(-c3ccc4cn[nH]c4c3)nc3cn[nH]c23)cn1 [Example 415, N-(1-(tert-butyl)-1H-pyrazol-4-yl)-5-(1H-indazol-6-yl)-1H-pyrazolo[4,3-d]pyrimidin-7-amine]
36 | 100 to 1000 nM | COCC(COC)n1cc(Nc2nc(-c3ccco3)nc3cn[nH]c23)cn1 [Example 455, N-(1-(1,3-dimethoxypropan-2-yl)-1H-pyrazol-4-yl)-5-(furan-2-yl)-1H-pyrazolo[4,3-d]pyrimidin-7-amine]
37 | 10 to 100 nM | O=C1OCCN1c1ccc(Nc2nc(-c3ccco3)nc3cn[nH]c23)cc1 [Example 115, 3-(4-((5-(furan-2-yl)-1H-pyrazolo[4,3-d]pyrimidin-7-yl)amino)phenyl)oxazolidin-2-one]
38 | < 10 nM | CC(C)(C)N1CCN(c2ccc(Nc3nc(-c4ccco4)nc4cn[nH]c34)cc2)CC1 [Example 112, N-(4-(4-(tert-butyl)piperazin-1-yl)phenyl)-5-(furan-2-yl)-1H-pyrazolo[4,3-d]pyrimidin-7-amine]
